# Test results reported in PubChem BioAssay (NCI).
# Where “and” joins values, the source holds several entries; their conditions need not be identical. Identical values can stand only once.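 Tested at 5 concentrations; 48 h exposure; 96-well plates; endpoints linearly interpolated, else capped at highest concentration. The concentration for 50% growth inhibition is given as GI50. The concentration for full growth arrest is given as TGI.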
# How the values were obtained:
# Assay in all cases: inhibition of tumour cell growth, NCI panel, 48 h
# 786-0 renal = system: 786-0 renal
# A498 renal = system: A498 renal
# ACHN renal = system: ACHN renal
# CCRF-CEM leukemia = system: CCRF-CEM leukemia
# HOP-62 NSCLC = system: HOP-62 NSCLC
# K-562 leukemia = system: K-562 leukemia
# KM12 colon = system: KM12 colon
# MOLT-4 leukemia = system: MOLT-4 leukemia
# NCI-H460 lung = system: NCI-H460 lung
# RPMI-8226 leukemia = system: RPMI-8226 leukemia
Compound,GI50 (786-0 renal),TGI (786-0 renal),GI50 (A498 renal),TGI (A498 renal),GI50 (ACHN renal),TGI (ACHN renal),GI50 (CCRF-CEM leukemia),TGI (CCRF-CEM leukemia),GI50 (HOP-62 NSCLC),TGI (HOP-62 NSCLC),GI50 (K-562 leukemia),TGI (K-562 leukemia) [µM],GI50 (KM12 colon),TGI (KM12 colon) [µM],GI50 (MOLT-4 leukemia),TGI (MOLT-4 leukemia) [µM],GI50 (NCI-H460 lung),TGI (NCI-H460 lung) [µM],GI50 (RPMI-8226 leukemia),TGI (RPMI-8226 leukemia)
O=C1OCC2=C1C(c1ccccc1)c1cc3c(cc1N2CCO)CCC3 (configuration not stated),0.0988 µM,> 14.5 µM,0.0746 µM,0.657 µM,0.148 µM,> 25 µM,0.117 µM,> 25 µM,0.131 µM,> 25 µM,0.0908 µM,> 25,0.0793 µM,0.922,0.307 µM,> 25,0.09 µM,3.51,0.106 µM,> 25 µM
COc1cccc(C2=NN(C(C)=O)C(c3cc(OC)c(OC)c(OC)c3)C2)c1 (configuration not stated),2.63 µM,> 20.6 µM,6.44 µM,> 30 µM,16 µM,> 100 µM,0.921 µM,5.61 µM,0.827 µM,–,0.9 µM,> 84.5,1.48 µM,> 100,3.67 µM,> 100,2.14 µM,11.2,1.08 µM,4.36 µM
O=C(/C=C/c1ccccc1O)c1ccccc1,14.4 µM,29.7 µM,15.2 µM,28.6 µM,11 µM,24.2 µM,2.64 µM,8.19 µM,17.2 µM,52.7 µM,2.51 µM,14.1,1.77 µM,4.16,2.78 µM,14.3,14.2 µM,29,2.44 µM,6.68 µM
O=[N+]([O-])c1ccccc1S(=O)(=O)c1ccccc1[N+](=O)[O-],–,> 100 µM,–,> 100 µM,–,> 100 µM,–,> 100 µM,–,87 µM,–,> 100,–,> 100,–,> 100,–,> 100,–,> 100 µM
O=C(/C=C/c1ccccc1Cl)c1ccc(O)cc1,15.8 µM,30 µM,8.46 µM,21.6 µM,6.99 µM,19.2 µM,6.18 µM,35 µM,20.4 µM,37.3 µM,3.12 µM,> 100,3.57 µM,11.6,5.64 µM,> 57.6,4.4 µM,16.8,0.495 µM,3.39 µM
Clc1ccc(-c2nc(-c3c[nH]c4ncccc34)cs2)cc1,> 100 µM,> 100 µM,> 100 µM,> 100 µM,> 100 µM,> 100 µM,> 100 µM,> 100 µM,> 100 µM,> 100 µM,> 100 µM,> 100,> 100 µM,> 100,> 100 µM,> 100,> 100 µM,> 100,> 100 µM,> 100 µM
CC(/C=C/C=C/C=C/C=C/C=C/C(O)=C1/C(=O)C(CCC(=O)O)N(C)C1=O)=C\C(C)C(OC1CC(O)C(O)C(C)O1)C(C)C (configuration not stated),–,11.1 µM,–,10.7 µM,–,10.4 µM,–,8.47 µM,–,3.68 µM,–,15.6,–,3.73,–,7.08,–,10.1,–,9.25 µM
NC(Cc1cc(Br)c(O)c(Br)c1)C(=O)O (configuration not stated),–,> 100 µM,–,> 100 µM,–,> 100 µM,–,> 100 µM,–,> 100 µM,–,> 100,–,> 100,–,> 100,–,> 100,–,> 100 µM
COc1cc(C2=Nc3c/c(=C\c4c(O)[nH]c5ccc(Cl)cc45)ccc3=N2)cc(OC)c1OC,2.89 µM,9.91 µM,29.4 µM,> 100 µM,6.67 µM,24.2 µM,2.29 µM,8.55 µM,1.95 µM,4.09 µM,4.21 µM,25.5,3.09 µM,12.2,2.43 µM,12.9,2.7 µM,8.65,2.04 µM,5.77 µM
S=C(Nc1ccc(-c2nc3ccccc3s2)cc1)Nc1ccccn1,24.7 µM,70.4 µM,19.8 µM,44.7 µM,26.3 µM,> 70.8 µM,25.5 µM,> 100 µM,44.4 µM,> 100 µM,27.6 µM,> 100,21.9 µM,> 70.8,18.8 µM,> 86.7,41.2 µM,> 100,33.8 µM,> 100 µM
Cc1nc(NC(=O)COc2cccc(/C=C3\COc4ccccc4C3=O)c2)sc1C,1.73 µM,3.22 µM,12.6 µM,25.2 µM,1.85 µM,3.77 µM,3.42 µM,> 100 µM,1.71 µM,3.37 µM,3.1 µM,> 100,1.5 µM,2.92,3.5 µM,> 100,3.19 µM,11.3,14.8 µM,> 100 µM
C[C@@]12CCC[C@@](C)(C(=O)O)C1CC[C@]13C=C(CO)[C@](O)(CCC12)C3 (some centres not stated),> 100 µM,> 100 µM,> 100 µM,> 100 µM,> 100 µM,> 100 µM,65.9 µM,> 100 µM,> 100 µM,> 100 µM,> 100 µM,> 100,> 100 µM,> 100,> 100 µM,> 100,> 100 µM,> 100,> 100 µM,> 100 µM
S=C1CNC(=S)CN1,–,> 100 µM,–,> 100 µM,–,> 100 µM,–,> 100 µM,–,> 100 µM,–,> 100,–,> 100,–,> 100,–,> 100,–,> 100 µM
Nc1nn(C(=O)Nc2ccc(Cc3ccccc3)cc2)c2ccc(Cl)cc12,4.59 µM,28.7 µM,15.9 µM,52.8 µM,0.0646 µM,26.4 µM,3.08 µM,> 58.7 µM,1.33 µM,14.8 µM,0.0343 µM,16.9,0.0755 µM,> 100,4.87 µM,47,0.0658 µM,15.3,5.21 µM,47.7 µM
Clc1ccc(N/N=C/c2ccccn2)nc1,0.339 µM,> 100 µM,0.439 µM,5.9 µM,0.379 µM,> 100 µM,0.332 µM,> 100 µM,0.421 µM,> 80.3 µM,0.383 µM,> 100,0.395 µM,> 54.7,0.339 µM,> 50.7,0.379 µM,> 42.7,0.462 µM,18.7 µM
CCOc1ccc(/C=N/Nc2cc(C)nc3ccc(Cl)cc23)cc1,1.57 µM,3.03 µM,1.7 µM,3.45 µM,1.78 µM,3.17 µM,1.47 µM,3.76 µM,2.31 µM,6.53 µM,1.36 µM,2.98,1.89 µM,3.65,1.89 µM,3.85,2.06 µM,4.27,1.94 µM,4.32 µM
CCC[CH2][Sn]([CH2]CCC)([O]C(=O)c1cc(OC)c(OC)c(OC)c1)[O]C(=O)c1cc(OC)c(OC)c(OC)c1,1.29 µM,2.57 µM,1.17 µM,3.02 µM,1.59 µM,2.98 µM,0.25 µM,0.862 µM,2.01 µM,3.45 µM,0.29 µM,1.99,1.45 µM,3.01,0.505 µM,4.11,2.96 µM,9.21,0.445 µM,4.5 µM
Oc1ccc(Cl)cc1Cc1cc(Cl)cc(Cc2cc(Cl)ccc2O)c1O,–,11.3 µM,–,4.28 µM,–,7.64 µM,–,15.3 µM,–,10.9 µM,–,10.3,–,10.5,–,8.67,–,4.96,–,5.49 µM
COc1cc2c3c(n(CCCN=[N+]=[N-])c(=O)c2cc1OC)-c1ccc(N)cc1C3=O,0.16 µM,0.431 µM,0.0759 µM,0.484 µM,0.102 µM,1.02 µM,0.0277 µM,1.1 µM,0.118 µM,0.666 µM,0.177 µM,–,0.334 µM,1.16,0.0731 µM,1.46,0.0265 µM,0.139,0.0306 µM,0.446 µM
CCc1ccc(/C(C#N)=C/C=C/c2ccccc2)cc1,11.1 µM,> 100 µM,2.19 µM,39.3 µM,8.41 µM,> 100 µM,3.11 µM,> 100 µM,2.83 µM,> 100 µM,0.882 µM,> 100,1.61 µM,> 100,6.87 µM,> 83.9,3.35 µM,> 42.7,3.41 µM,> 69 µM
O=C(/C=C\c1cccc([N+](=O)[O-])c1)c1ccccc1,4.95 µM,12.7 µM,9.05 µM,25.1 µM,1.9 µM,3.81 µM,0.568 µM,> 100 µM,19.5 µM,46.6 µM,2.21 µM,> 100,2.36 µM,5.41,3.19 µM,> 100,7.54 µM,28.5,1.07 µM,> 100 µM
CN(C)c1cc2c(Nc3ccc4nc(Cc5ccccc5)[nH]c4c3)ncnc2cn1,12.5 µM,> 20.3 µM,> 13.9 µM,> 25 µM,11.8 µM,> 25 µM,> 18.7 µM,> 25 µM,> 15.6 µM,> 25 µM,> 19.8 µM,> 25,13.8 µM,> 25,> 25 µM,> 25,13.1 µM,> 25,11.4 µM,> 25 µM
O=[N+]([O-])c1ccc(Oc2cccnc2)c([N+](=O)[O-])c1,3.43 µM,26.5 µM,18.7 µM,43.1 µM,3.34 µM,13 µM,3.22 µM,24.8 µM,5.95 µM,27.9 µM,3.22 µM,> 100,2.69 µM,6.68,6.08 µM,32.2,10.5 µM,47.8,4.07 µM,62.6 µM
O=C(c1ccc(F)c(F)c1Nc1ccc(I)cc1F)N1CC(O)([C@H]2CCCCN2)C1,7.72 µM,21.7 µM,1.11 µM,3.31 µM,1.86 µM,15.8 µM,12.5 µM,29.4 µM,1.97 µM,17.3 µM,3.53 µM,13.5,1.12 µM,14,8.46 µM,23.3,4.19 µM,20.2,4.03 µM,20.8 µM
O=C1C(CN(Cc2ccccc2)Cc2ccccc2)CCCC1CN(Cc1ccccc1)Cc1ccccc1 (configuration not stated),16.8 µM and 55.1 µM,32.9 µM and > 100 µM,–,77.2 µM and > 100 µM,15.9 µM and > 85.3 µM,25.7 µM and > 100 µM,–,14.2 µM and > 100 µM,–,> 100 µM,54.3 µM and > 86.3 µM,> 100,40.2 µM and > 100 µM,> 100,–,> 100,–,> 100,–,> 100 µM
COc1ccc(Nc2nc(NCc3ccccc3)c3ccccc3n2)cc1,6.31 µM,20.9 µM,2.44 µM,13.9 µM,3.38 µM,14.1 µM,2.76 µM,9.19 µM,10.1 µM,22.4 µM,2.01 µM,5.71,3.81 µM,13.8,2.12 µM,5.28,3.34 µM,12.6,1.85 µM,4.85 µM
CCNC(=O)Nc1ccc(-c2nc3c(c(N4CCOC[C@@H]4C)n2)CCN(C2COC2)C3)cc1,0.386 µM and 0.278 µM,29.1 µM and > 10 µM,0.0164 µM and 0.0305 µM,0.114 µM and 0.2 µM,0.285 µM and 0.395 µM,> 56.2 µM,0.525 µM and 0.393 µM,> 100 µM,0.443 µM and 0.391 µM,22 µM and > 7.45 µM,1.27 µM and 1.1 µM,> 100,0.507 µM and 0.403 µM,> 100,0.521 µM and 0.911 µM,> 100,0.236 µM and 0.13 µM,> 100,0.286 µM and 0.218 µM,49 µM and > 8.49 µM
